“Also recorded” adds a separate entry of the source. Read-outs that look alike come from different tables or passages of the source.
T1: AATase (Saccharomyces cerevisiae, UniProt P40353, N391K/T84I)
T1 construct: culturing yeast cells of Saccharomyces cerevisiae KYOKAI No. 7 and recovering and purifying the crude enzyme; endogenous in cells; host or cells: Saccharomyces cerevisiae KYOKAI No. 7 (sake yeast)
T1 sequence (P40353 1-525 T84I/N391K): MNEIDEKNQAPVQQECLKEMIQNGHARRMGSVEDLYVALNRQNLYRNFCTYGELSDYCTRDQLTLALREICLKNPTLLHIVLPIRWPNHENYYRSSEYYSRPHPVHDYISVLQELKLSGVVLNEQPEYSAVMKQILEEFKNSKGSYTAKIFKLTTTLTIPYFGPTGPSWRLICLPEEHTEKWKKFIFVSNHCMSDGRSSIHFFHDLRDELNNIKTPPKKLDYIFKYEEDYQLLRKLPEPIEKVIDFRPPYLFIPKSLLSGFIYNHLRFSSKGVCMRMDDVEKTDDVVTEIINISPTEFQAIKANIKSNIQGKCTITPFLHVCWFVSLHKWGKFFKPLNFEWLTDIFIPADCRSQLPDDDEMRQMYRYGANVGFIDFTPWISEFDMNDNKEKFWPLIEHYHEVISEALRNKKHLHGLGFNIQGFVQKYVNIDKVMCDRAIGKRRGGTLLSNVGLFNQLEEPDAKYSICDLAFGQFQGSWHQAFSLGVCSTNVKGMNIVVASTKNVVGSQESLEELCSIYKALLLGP

B1: AATase (Saccharomyces cerevisiae S288C; N391K/T84I) (protein)
chain: T1 sequence (P40353 1-525 T84I/N391K)
notes: culturing yeast cells of Saccharomyces cerevisiae KYOKAI No. 7 and recovering and purifying the crude enzyme; endogenous in cells; host or cells: Saccharomyces cerevisiae KYOKAI No. 7 (sake yeast)

Tests used:
AATase [1] = biological target: T1, AATase; test: biochemical; details: read-out: Relative activity (%)
AATase [2] = biological target: T1, AATase; test: biochemical; type: biochemical
[3] = substrate: CC(=O)SCCNC(=O)CCNC(=O)[C@H](O)C(C)(C)COP(=O)(O)OP(=O)(O)OC[C@H]1O[C@@H](n2cnc3c(N)ncnc32)[C@H](O)[C@@H]1OP(=O)(O)O; test: Km value of AATase to isoamyl alcohol and acetyl-CoA; type: biochemical, Saccharomyces cerevisiae; details: other: substrate of AATase; pH 7.5; 25.0 °C
Method: (§1) A 1 ml of a solution containing a buffer for AATase reaction (25 mM imidazole hydrochloride buffer (pH 7.5), 1 mM acetyl-CoA, 0.1% Triton X-100, 0.5% isoamyl alcohol, 1 mM dithiothreitol, 0.1M sodium chloride, 20% glycerol: or 10 mM phosphate buffer (pH 7.5), 1 mM acetyl-CoA, 0.1% Triton X-100, 0.5% isoamyl alcohol, 1 mM dithiothreitol, 0.1M sodium chloride, 20% glycerol) and the enzyme of the present invention was encapsulated into a 20 ml vial and reacted at 25° C. for 1 hour. After incubation, the vial was opened and the reaction was stopped by adding 0.6 g of sodium chloride. n-Butanol was added as an internal standard to the reaction mixture up to 50 ppm. The vial was capped with a teflon stopper. Then, the isoamyl acetate generated was determined with the head space gas chromatography (Shimadzu GC-9A, HSS-2A) under the following condition: […]

[4] = substrate: CC(C)CCO; test: as above; type: biochemical, Saccharomyces cerevisiae; details: other: substrate of AATase; pH 7.5; 25.0 °C
Method: as §1

| Molecule | activity at 2000 µM (AATase [1]) | other results |
| --- | --- | --- |
| CCCCC/C=C\C/C=C\CCCCCCCC(=O)O [Linoleic acid] | 4.3% |  |
| CCCCCCCC/C=C\CCCCCCCC(=O)O [Oleic acid] | 59.6% |  |
| O=S(=O)(F)Cc1ccccc1 [PMSF, Phenylmethanesulfonyl fluoride] |  | Relative activity (%) (AATase [2]): 70.2% |
| O=C(O)c1cc[c]([Hg][Cl])cc1 [PCMB, pChloromercuribenzoic acid] |  | Inhibition of the enzyme (in words) (AATase [2]): inhibited strongly; also recorded: intensively inhibited; Relative activity (%) (AATase [2]): 0% |
| CCCCCCCCCCCCCCCC(=O)O [Palmitic acid] | 88.1% |  |
| CCCCCCCCCCCCCC(=O)O [Myristic acid] | 60.5% |  |
| c1cnc2c(c1)ccc1cccnc12 [1,10-phenanthroline] |  | activity at 1000 µM (AATase [2]; read-out: Relative activity (%)): 87.9% |
| CCCCCCCCCCCCCCCCCC(=O)O [Stearic acid] | 80.5% |  |
| CC/C=C\C/C=C\C/C=C\CCCCCCCC(=O)O [Linolenic acid] | 32% |  |
| O=C(O)c1cc(SSc2ccc([N+](=O)[O-])c(C(=O)O)c2)ccc1[N+](=O)[O-] [DTNB, Dithiobis(2nitrobenzoic acid)] |  | Relative activity (%) (AATase [2]; inhibitor 0.1 mM per footnote (head: 1 mM), None = 100): 0% |
| CCCCCC/C=C\CCCCCCCC(=O)O [Palmitoleic acid] | 16.7% |  |
| B1 |  | Km [3]: 0.19 mM; Km [4]: 29.8 mM |

— patent US5521088A, “Alcohol acetyltransferase genes and use thereof” (Kirin Beer Kabushiki Kaisha, priority 1992, dated 1996)
